Target: T1, Cys12 of the KRAS 4B G12C protein (Homo sapiens, UniProt P01116, G12C)
T1 construct: This protein contained 188 amino acids in total, including an N-terminal 6-Histidine tag; made in house; host or cells: E. coli BL21
Test: In vitro covalent adduct formation (CAF) assay, LC-MS intact mass
Format: binding
Conditions: 10 uM compound, 60 min
Procedure: This Example provides a protocol for assessing covalent adduct formation (CAF) between the compounds of the present application and KRAS.
In vitro covalent adduct formation assay: Covalent adduct formation (CAF) reactions between Cys12 of the KRAS 4B G12C protein and some of the compounds of Tables 1 to 4 were measured in vitro using liquid chromatography-mass spectrometry (LC-MS).
Recombinant Human KRAS 4B protein containing the G12C mutation was used in compound screening experiments. This protein contained 188 amino acids in total, including an N-terminal 6-Histidine tag, followed by a Tobacco Etch Virus (TEV) tag, followed by residues 1-169 of the native KRAS 4B sequence. The exact mass of the protein was 21,310 Da as determined by mass spectrometry. The full amino acid sequence is shown below: […]
The recombinant protein was expressed in E. coli BL21 cells and purified using affinity chromatography via a Ni-NTA column. Protein stocks were nucleotide-exchanged to >95% GDP, concentrated to 4 mg/mL, and stored at −80° C. in storage buffer (50 mM HEPES pH 7.4, 50 mM NaCl, 5 mM MgCl2, 1 mM DTT). Pure KRAS 4B G12C protein was diluted to a concentration of 5 μM in Tris Buffered Saline, pH 7.4. The compounds were dissolved in DMSO and added to the diluted protein to make a 10 μM concentration. The total DMSO concentration in the reaction was 4%. The reaction was mixed by pipetting and incubated at 22° C. for one hour. Aliquots of the reaction were taken over time and diluted 2:1 in 0.1% formic acid. The intact mass of the protein samples was measured by LC-MS using a QExactive+ mass spectrometer (Thermo Scientific). An amount of 500 ng total protein was injected onto a C8 reverse phase column, eluted with a seven-minute gradient of 30%-90% acetonitrile/0.1% formic acid, and analyzed for intact mass by the mass spectrometer. Adducts identified were confirmed to be within 1 Dalton of the expected mass, and the relative ratios of free:adduct protein were used to quantify the percentage of protein bound by the compound. CAF reactions were run in duplicate, with a typical variability of ±5%.

% CAF 10 uM @ 60 min [%]	Structure (SMILES)
66	C=CC(=O)N1C[C@H](C)N(c2nc(=O)n3c4c(c(-c5cc(Br)c(F)cc5F)c(C(F)(F)F)cc24)SCC2(CCOCC2)C3)C[C@H]1C [Example 1455, 8′-((2S,5R)-4-Acryloyl-2,5-dimethylpiperazin-1-yl)-11′-(5-bromo-2,4-difluorophenyl)-10′-(trifluoromethyl)-2,3,5,6-tetrahydro-2′H,4′H,6′H-spiro[pyran-4,3′-[1,4]thiazepino[2,3-4-ij]quinazolin]-6′-one]
97	C=CC(=O)N1[C@H](C)CN(c2nc(=O)n3c4c(c(-c5cc(Br)c(F)cc5F)c(C(F)(F)F)cc24)SC[C@@H]3COC)C[C@@H]1C (atropisomer, axis not shown) [Example 1447, (3S,10R)-7-((3S,5R)-4-Acryloyl-3,5-dimethylpiperazin-1-yl)-10-(5-bromo-2,4-difluorophenyl)-3-(methoxymethyl)-9-(trifluoromethyl)-2,3-dihydro-5H-[1,4]thiazino[2,3,4-ij]quinazolin-5-one]
54	C=CC(=O)N1[C@H](C)CN(c2nc(=O)n3c4c(c(-c5cc(Cl)c(F)cc5F)c(C(F)(F)F)cc24)SC[C@@H]3CN2CC[C@H](F)C2)C[C@@H]1C (atropisomer, axis not shown) [Example 1438, (3S,10S)-7-((3S,5R)-4-acryloyl-3,5-dimethylpiperazin-1-yl)-10-(5-chloro-2,4-difluorophenyl)-3-(((S)-3-fluoropyrrolidin-1-yl)methyl)-9-(trifluoromethyl)-2,3-dihydro-5H-[1,4]thiazino[2,3,4-ij]quinazolin-5-one]
92.1	C=CC(=O)N1C[C@H](C)N(c2nc(=O)n3c4c(c(-c5ccc(F)c(Cl)c5)c(C(F)(F)F)cc24)SC[C@@H]3COCOC)C[C@H]1C [Example 1363, (S)-7-((2S,5R)-4-acryloyl-2,5-dimethylpiperazin-1-yl)-10-(3-chloro-4-fluorophenyl)-3-((methoxymethoxy)methyl)-9-(trifluoromethyl)-2,3-dihydro-5H-[1,4]thiazino[2,3,4-ij]quinazolin-5-one]
96.9	C=CC(=O)N1[C@H](C)CN(c2nc(=O)n3c4c(c(-c5ccc(F)cc5F)c(C(F)(F)F)cc24)SC[C@@H]3CN2CCN(C3CC3)CC2)C[C@@H]1C (atropisomer, axis not shown) [Example 1346, (3S,10R)-7-((3S,5R)-4-acryloyl-3,5-dimethylpiperazin-1-yl)-3-((4-cyclopropylpiperazin-1-yl)methyl)-10-(2,4-difluorophenyl)-9-(trifluoromethyl)-2,3-dihydro-5H-[1,4]thiazino[2,3,4-ij]quinazolin-5-one]
97.2	C=CC(=O)N1CCN(c2nc(=O)n3c4c(c(-c5ccc(F)cc5F)c(C(F)(F)F)cc24)SC[C@@H]3CN2C[C@@H]3C[C@H]2CO3)CC1 (atropisomer, axis not shown) [Example 1305, (3S,10R)-3-(((1S,4S)-2-oxa-5-azabicyclo[2.2.1]heptan-5-yl)methyl)-7-(4-acryloylpiperazin-1-yl)-10-(2,4-difluorophenyl)-9-(trifluoromethyl)-2,3-dihydro-5H-[1,4]thiazino[2,3,4-ij]quinazolin-5-one]
96	C=CC(=O)N1C[C@H](C)N(c2nc(=O)n3c4c(c(-c5ccc(F)c(Cl)c5)c(C(F)(F)F)cc24)SCC2(COC2)C3)C[C@H]1C [Example 1354, 8′-((2S,5R)-4-acryloyl-2,5-dimethylpiperazin-1-yl)-11′-(3-chloro-4-fluorophenyl)-10′-(trifluoromethyl)-2′H,4′H,6′H-spiro[oxetane-3,3′-[1,4]thiazepino[2,3,4-ij]quinazolin]-6′-one]
60.6	C=CC(=O)N1[C@H](C)CN(c2nc(=O)n3c4c(c(-c5c(F)cccc5F)c(C(F)(F)F)cc24)SC[C@@H]3COC)C[C@@H]1C [Example 1371, (S)-7-((3S,5R)-4-acryloyl-3,5-dimethylpiperazin-1-yl)-10-(2,6-difluorophenyl)-3-(methoxymethyl)-9-(trifluoromethyl)-2,3-dihydro-5H-[1,4]thiazino[2,3,4-ij]quinazolin-5-one]

Same assay, conditions: 10 uM compound, 60 min incubation

% CAF 10 uM @ 60 min [%]	Structure (SMILES)
97.2	C=CC(=O)N1[C@H](C)CN(c2nc(=O)n3c4c(c(-c5ccc(F)cc5F)c(C(F)(F)F)cc24)SCC2(CN(CC)C2)C3)C[C@@H]1C [Example 1104, 8-((3S,5R)-4-acryloyl-3,5-dimethylpiperazin-1-yl)-11-(2,4-difluorophenyl)-1′-ethyl-10-(trifluoromethyl)-2H-spiro[[1,4]thiazepino[2,3,4-ij]quinazoline-3,3′-azetidin]-6(4H)-one]
95.7	C=CC(=O)N1[C@H](C)CN(c2nc(=O)n3c4c(c(-c5ccc(F)cc5)c(C(F)(F)F)cc24)SC[C@H](N2CCCC2)C3)C[C@@H]1C [Example 1118, (R)-8-((3S,5R)-4-acryloyl-3,5-dimethylpiperazin-1-yl)-11-(4-fluorophenyl)-3-(pyrrolidin-1-yl)-10-(trifluoromethyl)-3,4-dihydro-2H,6H-[1,4]thiazepino [2,3,4-ij]quinazolin-6-one]
96.1	C=CC(=O)N1C[C@H](C)N(c2nc(=O)n3c4c(c(-c5ccc(F)cc5F)c(C(F)(F)F)cc24)SCC2(COC2)C3)C[C@H]1C (atropisomer, axis not shown) [Example 1110, (R)-8′-((2S,5R)-4-acryloyl-2,5-dimethylpiperazin-1-yl)-11′-(2,4-difluorophenyl)-10′-(trifluoromethyl)-2′H,4′H,6′H-spiro[oxetane-3,3′-[1,4]thiazepino [2,3,4-ij]quinazolin]-6′-one]

Same assay, conditions: 10 μM compound, after 1 hour

CAF (% after 1 hour) [%]	Structure (SMILES)
70	C=CC(=O)N1[C@H](C)CN(c2nc(=O)n3c4c(c(-c5nc(N)c(F)cc5F)c(C(F)(F)F)cc24)SC[C@@H](OC)C3)C[C@@H]1C [Example 1242, (3S)-8-((3S,5R)-4-acryloyl-3,5-dimethylpiperazin-1-yl)-11-(6-amino-3,5-difluoropyridin-2-yl)-3-methoxy-10-(trifluoromethyl)-3,4-dihydro-2H,6H-[1,4]thiazepino[2,3,4-ij]quinazolin-6-one]
92	C=CC(=O)N1[C@H](C)CN(c2nc(=O)n3c4c(c(-c5cc(Cl)c(F)cc5F)c(C(F)(F)F)cc24)SCC2(CC(=O)C2)C3)C[C@@H]1C [Example 1243, 8′-((3S,5R)-4-acryloyl-3,5-dimethylpiperazin-1-yl)-11′-(5-chloro-2,4-difluorophenyl)-10′-(trifluoromethyl)-2′H,4′H,6′H-spiro[cyclobutane-1,3′-[1,4]thiazepino[2,3,4-ij]quinazoline]-3,6′-dione]

Same assay, conditions: after 60 min

CAF (% binding after 60 min) [%]	Structure (SMILES)
97	C=CC(=O)N1CCN(c2nc(=O)n3c4c(c(-c5ccc(F)c(Cl)c5)c(C(F)(F)F)cc24)SC[C@@H](OC)C3)CC1 [Example 1042, (S)-8-(4-acryloylpiperazin-1-yl)-11-(3-chloro-4-fluorophenyl)-3-methoxy-10-(trifluoromethyl)-3,4-dihydro-2H,6H-[1,4]thiazepino[2,3,4-ij]quinazolin-6-one]
85	C=CC(=O)N1CCN(c2nc(=O)n3c4c(c(-c5cc(Cl)c(F)cc5F)c(C(F)(F)F)cc24)SC[C@H](OCCOC)C3)CC1 [Example 1022, (3R)-8-(4-acryloylpiperazin-1-yl)-11-(5-chloro-2,4-difluorophenyl)-3-(2-methoxyethoxy)-10-(trifluoromethyl)-3,4-dihydro-2H,6H-[1,4]thiazepino[2,3,4-ij]quinazolin-6-one]
96	C=CC(=O)N1[C@H](C)CN(c2nc(=O)n3c4c(c(-c5ccc(F)cc5)c(Cl)cc24)SC[C@@H](OC)C3)C[C@@H]1C [Example 1040, (S)-8-((3S,5R)-4-acryloyl-3,5-dimethylpiperazin-1-yl)-10-chloro-11-(4-fluorophenyl)-3-methoxy-3,4-dihydro-2H,6H-[1,4]thiazepino[2,3,4-ij]quinazolin-6-one]
98	C=CC(=O)N1CCN(c2nc(=O)n3c4c(c(-c5ccc(F)cc5)c(C(F)(F)F)cc24)SC[C@@H](OCCOC)C3)CC1 [Example 1017, (S)-8-(4-acryloylpiperazin-1-yl)-11-(4-fluorophenyl)-3-(2-methoxyethoxy)-10-(trifluoromethyl)-3,4-dihydro-2H,6H-[1,4]thiazepino[2,3,4-ij]quinazolin-6-one]
97	C=CC(=O)N1[C@H](C)CN(c2nc(=O)n3c4c(c(-c5ccc(F)cc5F)c(C(F)(F)F)cc24)SC[C@H](OCOC)C3)C[C@@H]1C [Example 1011, (3R)-8-((3S,5R)-4-acryloyl-3,5-dimethylpiperazin-1-yl)-11-(2,4-difluorophenyl)-3-(methoxymethoxy)-10-(trifluoromethyl)-3,4-dihydro-2H,6H-[1,4]thiazepino[2,3,4-ij]quinazolin-6-one]

Reference: patent US20230107642A1 (Erasca, Inc., priority 2020, published 2023)
